Laboratory results: ChEMBL document CHEMBL1127766, “Stereochemical approach for enzyme inhibitor design” (Bioorg Med Chem Lett, 1994)
Where “and” joins values, the source holds several entries; their conditions need not be identical. Equal values may be shown once.

Columns and labels:
Chymotrypsinogen A = Chymotrypsinogen A (Bos taurus, UniProt P00766); test: Binding affinity against alpha-chymotrypsin
[1] = target: Chymotrypsinogen A (Bos taurus) (UniProt P00766)

Ki (Chymotrypsinogen A): 9.95 mM and 3.23 mM
Kiact [1]: 5.24 min⁻¹
SMILES: COC(=O)[C@@H](Cc1ccccc1)[C@H]1CO1
